Read-outs that look alike come from different tables or passages of the source.
Test system: HEK-CMV-Luc2-Hygro cells
Assay: High-throughput genome-wide siRNA screen and validation screen for luciferase expression
Type: cell-based, human
Settings: for per_cell / VIA: Table 3; for per_cell: per cell luciferase yield relative to negative control; for VIA: viable cell density as % of negative control; for Luciferase activity (%) / Per cell luciferase yield (%) / Viable cell number (%): Table 6, polyamine pathway gene siRNAs
Description: The Silencer Select™ Human genome siRNA library (Ambion), which targets 21,585 human genes with 3 siRNAs per gene, was used for screening. Each siRNA is arrayed in an individual well (Corning 3570, 384 well, white, solid bottom plates). The transfection was done in duplicates: 0.8 pmol of each siRNA was spotted to a well of a 384-well plate (Corning) and 20 μL of serum-free DMEM containing 0.07 μL of Lipofectamine™ RNAiMax (Life Technologies) was then added to each well. This lipid-siRNA mixture was incubated at ambient temperature for 30 min prior to addition of 4000 cells in 20 μL of DMEM containing 20% FBS (Gibco). After incubating the transfected cells at 37° C. in 5% CO2 for 72 hours, 20 μL of ONE-Glo™ Reagent (Promega) was added to one set of replicates for ‘overall luciferase yield’ quantification and 20 μL of CellTiter-Glo™ Reagent (Promega) was added to the second set of replicates for ‘viable cell density’ measurement. All plates were incubated at room temperature for 20 minutes to stabilize the luminescent signal and the signal was then measured with PerkinElmer Envision 2104 Multilabel™ plate reader.
The 56 genes which got targeted by at least two independent siRNAs (out of three) resulting in enhanced luciferase production with MAD-based z-score>3 from the primary screen were subjected to validation screen using 3 additional Silencer™ siRNAs (Ambion) with different sequences from those used in the primary screen. […] The transfection and assay processes were-the same as the primary genome-wide screen. Data visualization was performed in R computational environment (available on the World Wide Web at R-project.org/) by using ‘hexbin’ and ‘ggplot2’ packages.
The screen generated end-point data for ‘overall luciferase yield’ and ‘viable cell density’ in each well. For each plate, the median value of the negative control wells was set as 100% and was used to normalize corresponding sample wells. The ‘overall luciferase yield’ and ‘viable cell density’ were exported as % of negative control and the median absolute deviation (MAD)-based z-score was calculated for each sample.

[1] = Table 4, primary screen, 72 h, negative control = 100%

Substance | Viable cell density (%) [1] [%] | per cell luciferase yield (%) [1] [%] | per_cell (primary screen, 72 h) | VIA (primary screen, 72 h) | other results
147 (GUUUCGACCUCGAUCCAGATT; chemistry not given here; listed as Homo sapiens) [compound 147] | 61.490 | 256.085 | – | – | –
161 (GCAGUGGACAUAGAAGAGATT; chemistry not given here; listed as Homo sapiens) [compound 161] | 110.815 | 140.658 | – | – | –
98 (CAACGGGACUAUUAUGAUATT; chemistry not given here; listed as Homo sapiens) [compound 98] | 97.392 | 163.496 | – | – | –
205 (CUCUGAUUGUCACCUCUUATT; chemistry not given here; listed as Homo sapiens) [compound 205] | 61.943 | 281.113 | – | – | –
203 (GAUUACUUCUUGACUAUCATT; chemistry not given here; listed as Homo sapiens) [compound 203] | 123.199 | 150.843 | – | – | –
169 (GCGGAAAAGGUAUCCCUCATT; chemistry not given here; listed as Homo sapiens) [compound 169] | 80.173 | 184.608 | – | – | –
94 (AGAGGCUACUUUGAAAACATT; chemistry not given here; listed as Homo sapiens) [compound 94] | 66.938 | 227.583 | – | – | –
146 (GACCUAUACUCAUUCUGCATT; chemistry not given here; listed as Homo sapiens) [compound 146] | 83.351 | 171.308 | – | – | –
39 (CGCUUUAACUGGAAGCUCUTT; chemistry not given here; listed as Homo sapiens) [compound 39] | – | – | 147 | 103.7 | –
86 (CAUUGGUUUUGAUGAGUAUTT; chemistry not given here; listed as Homo sapiens) [compound 86] | – | – | 226.7 | 64.38 | –
45 (GGAUAUUGGAGGCUAGUCATT; chemistry not given here; listed as Homo sapiens) [compound 45] | – | – | 157.9 | 89.68 | –
103 (GACAUUGGAUCAUACUAAATT; chemistry not given here; listed as Homo sapiens) [compound 103] | 88.908 | 185.522 | – | – | –
74 (CUUCGACAGUACUUCCGGATT; chemistry not given here; listed as Homo sapiens) [compound 74] | – | – | 161.6 | 104 | –
54 (GCAUCUGUCCGAUCGCUCUTT; chemistry not given here; listed as Homo sapiens) [compound 54] | – | – | 143.9 | 105.5 | –
185 (GAAGAAGACUCUGUACUCATT; chemistry not given here; listed as Homo sapiens) [compound 185] | 66.511 | 215.853 | – | – | –
76 (CUUUUAAUGUUAAACUACATT; chemistry not given here; listed as Homo sapiens) [compound 76] | – | – | 133.6 | 111 | –
78 (CGGAAUCAAUGAUCCUGUATT; chemistry not given here; listed as Homo sapiens) [compound 78] | – | – | 212.7 | 71.39 | –
108 (CGGAAUCAAUGAUCCUGUATT; chemistry not given here; listed as Homo sapiens) [compound 108] | 71.395 | 212.652 | – | – | –
143 (GCAAAGAUAGCGAGAAAUATT; chemistry not given here; listed as Homo sapiens) [compound 143] | 75.599 | 193.846 | – | – | –

Substance | Viable cell density (%) [1] [%] | per cell luciferase yield (%) [1] [%] | per_cell (primary screen, 72 h) | VIA (primary screen, 72 h) | other results
130 (GGAGGAAUCUCGAAUGCGATT; chemistry not given here; listed as Homo sapiens) [compound 130] | 96.002 | 173.284 | – | – | –
82 (GUCCUAUCACCGUAUCUUATT; chemistry not given here; listed as Homo sapiens) [compound 82] | – | – | 266.6 | 55.96 | –
139 (GGAGAUAUGCAAAGCAGAATT; chemistry not given here; listed as Homo sapiens) [compound 139] | 83.011 | 194.043 | – | – | –
102 (AGAUCUUUGUCAAGGUGUATT; chemistry not given here; listed as Homo sapiens) [compound 102] | 96.256 | 153.438 | – | – | –
121 (CAUUGGUUUUGAUGAGUAUTT; chemistry not given here; listed as Homo sapiens) [compound 121] | – | 226.659 | – | – | Viable cell density (%): 64.385%
47 (GUACCUGCGGGAUUACUCATT; chemistry not given here; listed as Homo sapiens) [compound 47] | – | – | 160.7 | 90.99 | –
51 (CCAGCGAUACAACUCCUAUTT; chemistry not given here; listed as Homo sapiens) [compound 51] | – | – | 176.8 | 83.64 | –
200 (GCAACAGAAUCGAGCAAGATT; chemistry not given here; listed as Homo sapiens) [compound 200] | 105.583 | 154.286 | – | – | –
70 (GAUUAUCCUUGUACUUUGATT; chemistry not given here; listed as Homo sapiens) [compound 70] | – | – | 141.8 | 101.9 | –
61 (GGACGGAAGCGAAAAUCGATT; chemistry not given here; listed as Homo sapiens) [compound 61] | – | – | 216.2 | 71.47 | –
46 (CUCUUAUGGUAACCAAUGATT; chemistry not given here; listed as Homo sapiens) [compound 46] | – | – | 160.2 | 91.56 | –
97 (GAUGAAGAAUGAUAAGUCATT; chemistry not given here; listed as Homo sapiens) [compound 97] | 96.599 | 184.201 | – | – | –
62 (AGGUCAAUGUGACUUUCCATT; chemistry not given here; listed as Homo sapiens) [compound 62] | – | – | 161.8 | 105 | –
159 (GGAGUUCUUUGAUGAGAAATT; chemistry not given here; listed as Homo sapiens) [compound 159] | 96.357 | 157.243 | – | – | –
196 (ACAGGUCUUUAUCAAAGCATT; chemistry not given here; listed as Homo sapiens) [compound 196] | 100.201 | 153.426 | – | – | –
213 (GGCUGAAUGUAACAGAGGATT; chemistry not given here; listed as Homo sapiens) [compound 213] | – | – | – | – | Luciferase activity (%): 127.6%; Per cell luciferase yield (%): 134.5%; Viable cell number (%): 94.9%
225 (GCUUGCAGUUAAUAUCAUUTT; chemistry not given here; listed as Homo sapiens) [compound 225] | – | – | – | – | Luciferase activity (%): 28.4%; Per cell luciferase yield (%): 46.7%; Viable cell number (%): 60.8%
184 (GCCUGAAUCUUGUCCCAAATT; chemistry not given here; listed as Homo sapiens) [compound 184] | 82.390 | 228.483 | – | – | –

— patent US20160319277A1, “METHODS OF IMPROVED PROTEIN PRODUCTION USING MIRNAs AND SIRNAs” (THE JOHNS HOPKINS UNIVERSITY, priority 2015, published 2016)
